The results in this text go back to patent US20210115521A1, “METHOD FOR INHIBITING TUMOR PROGRESSION OR DETERMINING TUMOR PROGRESSION STATE IN GASTRIC CANCER” (National Tsing Hua University, priority 2019, published 2021).

Residues, ends and D or L forms follow the SMILES beside them. *: point of attachment. Cbz = O=C(OCc1ccccc1)*

One experiment has as its system MKN45 cells. Put plainly: Zebrafish xenotransplantation migration assay, MKN45. The experiment is classed as in vivo. The following applies: MKN45-injected embryos, immersion in 1 μM at 1 dpi, read at 3 dpi. The protocol: The Tg (fli1: EGFP) zebrafish transgenic strain was purchased from ZIRC (Oregon, USA). The zebrafish embryos, larvae, and adult fish were maintained in the Taiwan Zebrafish Core Facility @ NHRI. At two-day post-fertilization, the embryos were dechorionated and subsequently anesthetized with tricaine (0.04 mg/ml). MKN28 or MKN45 cells were labeled with either CFSE or CM-DiI. Two hundred labeled cells (4.6 nl) were injected into the yolk of two-day old embryo using a Nanoject II Auto-Nanoliter Injector (Drummond Science, Broomall, Pa., USA). Later, individual recipients were examined for fluorescent cells 1 and 3 day-post injection by a fluorescence microscopy (Leica). […]
Next, to evaluate migration behavior using a zebrafish xenotransplantation assay, an efficient in vivo system that utilizes a small number of cells (100 to 200 cells) to accurately monitor cell migratory activity within a couple of days. […] Migration activity was monitored at 1-day postinjection (1 dpi) and 3 dpi by fluorescence microscopy.
Next, to corroborate this finding using a zebrafish xeno-transplantation model. Cells labeled with Vybrant CM-DiI (CM-Dil) (red fluorescence dye) were injected into the embryos of Tg (fli1: EGFP) (fish with green fluorescence in blood vessels), followed by immersion in solutions containing 1 μM m Midostaurin or Bosutinib (a sublethal dose) at 1 dpi. […]

The next experiment deals with MKN28 cells. Description: Zebrafish xenotransplantation migration assay, MKN28. The experiment is classed as in vivo. To be noted: MKN28-injected embryos, immersion in 1 μM at 1 dpi, read at 3 dpi.
In experiment [1] the test system is PTEN. Description: PTEN protein level by Western blotting in MKN28. The experiment is classed as cell-based, human. The following applies: MG132-treated pLKO MKN28 cells. An excerpt:
FIG. 15. Pharmacological inhibition of PHF8-PKCα-Src-PTEN blocks GC progression in vitro and in vivo. […] Data from FIGS. 15B and 15D are presented as the average of three replicates ±SD **P<0.01 (two-tailed Student's t test). Zebrafish xeno-transplantation assays using Mido or Bosu. […] Cyan, blood vessel. […] Total number of embryos used in vehicle, Mido, and Bosu is shown in the bracket. Data were obtained from three independent studies. **P<0.01 (two-tailed Student's t test).
(§1) For immunoblotting assay, PBS-washed cells collected by scraping were directly lysed in RIPA buffer supplemented with protease inhibitor (Santa Cruz) and PhosSTOP (Sigma). Appropriate amounts of protein were separated on SDS-PAGE and then electrotransferred to PVDF membrane (PALL, Protein Washington, N.Y., USA). After the transfer, each membrane was incubated with appropriate primary antibody overnight at 4° C. and then probed with secondary antibodies conjugated with fluorescence. Odyssey Infrared Imaging System (LI-COR Biosciences, Lincoln, Nebr., USA) was utilized to detect the level of fluorescence. For immunoprecipitation assay, cell pellets were lysed in lysis buffer [50 mM Tris-HCl (pH 7.4), 150 mM NaCl, 0.5% NP40)] containing protease inhibitor (Santa Cruz). […]

The test system of experiment [2] is PTEN. Put plainly: PTEN protein level by Western blotting in MKN45. The experiment is classed as cell-based, human. To be noted: MG132-treated pLKO MKN45 cells. How it is done: FIG. 16. Pharmacological inhibition of PHF8-PKCα-Src-PTEN blocks GC progression in vitro and in vivo. […] Data form FIGS. 16B and 16D are presented as the average of 3 replicates ±SD. *p<0.05, **p<0.01 (two-tailed Student's t test). Zebrafish xenotransplantation assays using Mido or Bosu. Fluorescence microscopic analysis was conducted at 1 dpi and 3 dpi. […] Cyan, blood vessel. Scale bar, 100 μm. […] Total number of embryos used in vehicle, Mido, Bosu is shown in the bracket. Data were obtained from 3 independent studies. *p<0.05 (two-tailed Student's t test).
as §1
On the technique in general: Immunoblotting shows a protein as a band on a membrane.

Experimental for MKN28 cells: The Tg (fli1: EGFP) zebrafish transgenic strain was purchased from ZIRC (Oregon, USA). […] At two-day post-fertilization, the embryos were dechorionated and subsequently anesthetized with tricaine (0.04 mg/ml). MKN28 or MKN45 cells were labeled with either CFSE or CM-DiI. Two hundred labeled cells (4.6 nl) were injected into the yolk of two-day old embryo using a Nanoject II Auto-Nanoliter Injector (Drummond Science, Broomall, Pa., USA). Later, individual recipients were examined for fluorescent cells 1 and 3 day-post injection by a fluorescence microscopy (Leica).
Next, to evaluate migration behavior using a zebrafish xenotransplantation assay, an efficient in vivo system that utilizes a small number of cells (100 to 200 cells) to accurately monitor cell migratory activity within a couple of days. Cells (pLKO vs. shPHF8) were labeled with carboxyfluorescein succinimidyl ester (CFSE), an amine-reactive green fluorescent dye, and injected into zebrafish embryos. Migration activity was monitored at 1-day postinjection (1 dpi) and 3 dpi by fluorescence microscopy.

For `CO[C@@H]1[C@H](N(C)C(=O)c2ccccc2)C[C@H]2O[C@]1(C)n1c3ccccc3c3c4c(c5c6ccccc6n2c5c31)C(=O)NC4` [Midostaurin], the “embryos with migration behavior (metastatic activity)” value in the experiment with MKN45 cells is 13.88%. In addition, in the experiment with MKN28 cells, the “embryos with migration behavior (dissemination and invasion)” value is listed as 11%.

`COc1cc(Nc2c(C#N)cnc3cc(OCCCN4CCN(C)CC4)c(OC)cc23)c(Cl)cc1Cl` [Bosutinib]: the “embryos with migration behavior (metastatic activity)” value in the experiment with MKN45 cells worked out at 18.08%. For the same molecule, in the experiment with MKN28 cells, the “embryos with migration behavior (dissemination and invasion)” value came out at 11.95%.

`CC(C)C[C@@H](C=O)NC(=O)[C@H](CC(C)C)NC(=O)[C@H](CC(C)C)NC(=O)OCc1ccccc1` [MG132] (Cbz-Leu-Leu-Leu-aldehyde): the “PTEN protein level with MG132 treatment” value in the experiment on PTEN [1] and with PTEN [2] was “rescued” throughout.
